Measurements from PubChem BioAssay (NCI).
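Step 1: Grow cells in 96-well plates. Step 2: Expose to compound for 48 hours at 5 concentrations. Step 3: Interpolate endpoints linearly; if unreached, use highest concentration. TGI is the concentration that stops growth completely.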

Assays:
Experiment in all cases: NCI tumour cell line growth inhibition, 48 h
786-0 renal = system: 786-0 renal
A498 renal = system: A498 renal
A549 NSCLC = system: A549 NSCLC
ACHN renal = system: ACHN renal
BT-549 breast = system: BT-549 breast
CAKI-1 renal = system: CAKI-1 renal
COLO 205 colon = system: COLO 205 colon
DU-145 prostate = system: DU-145 prostate
EKVX NSCLC = system: EKVX NSCLC
HCC-2998 colon = system: HCC-2998 colon
HCT-116 colon = system: HCT-116 colon
HCT-15 colon = system: HCT-15 colon
HL-60(TB) leukemia = system: HL-60(TB) leukemia
HOP-62 NSCLC = system: HOP-62 NSCLC
HOP-92 NSCLC = system: HOP-92 NSCLC
HS 578T breast = system: HS 578T breast
HT29 colon = system: HT29 colon
IGROV1 ovarian = system: IGROV1 ovarian
K-562 leukemia = system: K-562 leukemia
LOX IMVI melanoma = system: LOX IMVI melanoma
M14 melanoma = system: M14 melanoma
MALME-3M melanoma = system: MALME-3M melanoma
MCF7 breast = system: MCF7 breast
MDA-MB-231 breast = system: MDA-MB-231 breast
MDA-MB-435 = system: MDA-MB-435
MDA-N = system: MDA-N
MOLT-4 leukemia = system: MOLT-4 leukemia
NCI-H226 lung = system: NCI-H226 lung
NCI-H23 lung = system: NCI-H23 lung
NCI-H460 lung = system: NCI-H460 lung
NCI-H522 lung = system: NCI-H522 lung
NCI/ADR-RES ovarian = system: NCI/ADR-RES ovarian
OVCAR-3 ovarian = system: OVCAR-3 ovarian
OVCAR-4 ovarian = system: OVCAR-4 ovarian
OVCAR-5 ovarian = system: OVCAR-5 ovarian
OVCAR-8 ovarian = system: OVCAR-8 ovarian
PC-3 prostate = system: PC-3 prostate
RPMI-8226 leukemia = system: RPMI-8226 leukemia
RXF 393 renal = system: RXF 393 renal
SF-268 CNS = system: SF-268 CNS
SF-295 CNS = system: SF-295 CNS
SF-539 CNS = system: SF-539 CNS
SK-MEL-2 melanoma = system: SK-MEL-2 melanoma
SK-MEL-28 melanoma = system: SK-MEL-28 melanoma
SK-MEL-5 melanoma = system: SK-MEL-5 melanoma
SK-OV-3 ovarian = system: SK-OV-3 ovarian
SN12C renal = system: SN12C renal
SNB-19 CNS = system: SNB-19 CNS
SNB-75 CNS = system: SNB-75 CNS
SR leukemia = system: SR leukemia
SW-620 colon = system: SW-620 colon
T-47D breast = system: T-47D breast
TK-10 renal = system: TK-10 renal
U251 CNS = system: U251 CNS
UACC-257 melanoma = system: UACC-257 melanoma
UO-31 renal = system: UO-31 renal

Measured: TGI

COc1cc2ccc1OCc1cccc(n1)COc1ccc(cc1OC)C=NCCNCCN=C2
> 100 µM: all assays above
